Measured values published in patent US11980631B2, “β-lactamase inhibitors” (priority 2017, dated 2024).
“Also recorded” adds a separate entry of the source. Like-named read-outs stand apart in the source and are kept apart here.

What was measured:
S. maltophilia = assay: microbe, parasite or virus in culture; type: cell-based, Stenotrophomonas maltophilia; conditions: for MIC: Stenotrophomonas maltophilia; for MIC / MIC of the β-lactam alone (−): no inhibitor
Procedure: S. maltophilia clinical isolates were K279a, a well characterised isolate from Bristol, UK, or were obtained from the SENTRY antimicrobial resistance survey, as previously reported. […] All growth media were from Oxoid. Chemicals were from Sigma, unless otherwise stated.
Susceptibility to β-lactams in bacterial isolates was determined using the CLSI microtitre minimum inhibitory concentration (MIC) methodology with Muller-Hinton Broth using 96 well plates (Corning, Costar). The MIC was determined as the lowest concentration of β-lactam required to entirely suppress growth. Inhibitor concentrations were kept constant at 2 mg/L or 10 mg/L in all assays. Interpretation of susceptibility/resistance was by reference to CLSI clinical breakpoints for S. maltophilia (ceftazidime) and for Pseudomonas aeruginosa (for aztreonam and meropenem, since no S. maltophilia breakpoints are available).

[1] = tested on: L1 β-lactamase production in S. maltophilia K279a; assay: L1 β-lactamase induction by β-lactamase inhibitors (meropenem hydrolysis in cell extracts); type: cell-based; conditions: 50 μg.mL^−1 inducer
Procedure: L1 activity was measured from the cell extracts in a 96-well plate reader by determining meropenem hydrolysis (100 μM) at λ=300 nm. Protein concentration was determined by using BioRad protein assay dye reagent. Specific activity was calculated by using the extinction coefficient of 9600 AU/M/cm and a pathlength correction for the microplate ([…]). Data presented are means +/−SEM, n=3.
Cultures were grown overnight using nutrient broth and used to inoculate (1:100 dilution) 10 ml nutrient broth cultures in sealed 30 ml universal bottles. Cultures were incubated for 2 h with shaking at 37° C. before test inducers were added, or not, and culture was continued for 2 h. Cells were pelleted by centrifugation (4,000×g, 10 min) and pellets treated with 100 μL of BugBuster (Ambion), pipetting up and down a few times before rocking for 10 min at room temperature. […] Protein concentration was determined using the BioRad protein assay reagent concentrate according to the manufacturer's instructions. L1 β-lactamase activity was determined using an Omega Fluostar (BMG Biotech) using meropenem as substrate in half-area 96 well UV-translucent plates (Greiner UV-Star. Bio-one) with 200 μl of 100 μM meropenem solution in assay buffer (60 mM Na2HPO4.7H2O pH 7.0, 40 mM NaH2PO4.H2O, 10 mM KCI, 1 mM MgSO4.7H2O, 100 μM ZnCl2) plus 10 μL of cell extract. […]

L2 = L2 (Stenotrophomonas maltophilia (Pseudomonas maltophilia) (Xanthomonas maltophilia), UniProt P96465); assay: Inhibition of purified L2, fluorogenic substrate FC5 as reporter
Procedure: Steady state kinetic data were analysed by curve fitting to the Michaeilis-Menten equation using Prism software.

BlaC = BlaC (Mycobacterium tuberculosis (strain ATCC 25618 / H37Rv), UniProt P9WKD3); assay: BlaC inhibition assay (FC5 hydrolysis, fluorescence); type: biochemical
Procedure: Recombinant BlaC, with an N-terminal His-tag, was produced in E. coli BL21(DE3) cells using auto-induction medium supplemented with 50 μg mL^−1 ampicillin. Cells were grown for four hours at 37° C. before cooling to 18° C. and continuing growth overnight. Cells were harvested by centrifugation (10 min, 10000 g).
FC5 was stored as a 2.5 mM solution in assay buffer supplemented with 10% (v/v) DMSO. Fluorescence measurements were made using a PHERAstar multi-mode plate reader (BMG Labtech). All assays were carried out at 25° C. Fluorescence assays were carried out using black 96 well format half area clear® plates (Greiner Bio-One) with a final assay volume of 100 μL. FC5 hydrolysis was followed by fluorescence (λex=380 nm, λem=460 nm) corresponding to the release of the umbelliferone fluorophore. The optimum concentration of enzyme for steady-state measurements was determined by examining the rate of substrate hydrolysis at varied concentrations of enzyme, with the concentration at which the initial rate remained constant for 5-10 min being selected as an appropriate enzyme concentration. Initial rates of substrate hydrolysis were determined at varying substrate concentrations. Steady-state kinetic parameters were determined by fitting of initial rates to the Michaelis-Menten equation using GraphPad Prism 5 software.
Inhibition assays were performed by monitoring the initial rate of FC5 hydrolysis via fluorescence at a range of inhibitor concentrations. Inhibitors were stored either as solids or as 100 mM stock solutions in DMSO, these were diluted to appropriate concentrations in the assay buffer. Typically inhibition assays were carried out using black 384 well format pclear® plates (Griener Bio-One) with a final assay volume of 25 μL. Enzyme concentrations were chosen to give a linear rate of FC5 hydrolysis over the first 5 min of the assay time with an FC5 concentration of 5 μM. Components were added in the following order and volumes:
The enzyme was incubated with the inhibitor for 10 min prior to initiation of the reaction by the addition of the substrate. The residual activities were calculated using the following formula:
[formula] IC50 values were calculated by fitting of residual residual activity curves using GraphPad Prism 5 software.

L1 (class B3 MBL) = L1 (class B3 MBL) (Stenotrophomonas maltophilia (Pseudomonas maltophilia) (Xanthomonas maltophilia), UniProt P52700); assay: Steady-state hydrolysis of β-lactams by purified L1; type: biochemical, S. maltophilia
Source text: (§1) As a prelude to investigation the effects of β-lactamase inhibitors, the hydrolysis of a range of candidate β-lactams in vitro by purified L1 (class B3 MBL) and L2 (class A ESBL) under steady state conditions were investigated.

L2 (class A ESBL) = L2 (class A ESBL) (Stenotrophomonas maltophilia (Pseudomonas maltophilia) (Xanthomonas maltophilia), UniProt P96465); assay: Steady-state hydrolysis of β-lactams by purified L2; type: biochemical, S. maltophilia
Source text: as §1

Chain of L1 (class B3 MBL) (P52700 whole entry, looked up): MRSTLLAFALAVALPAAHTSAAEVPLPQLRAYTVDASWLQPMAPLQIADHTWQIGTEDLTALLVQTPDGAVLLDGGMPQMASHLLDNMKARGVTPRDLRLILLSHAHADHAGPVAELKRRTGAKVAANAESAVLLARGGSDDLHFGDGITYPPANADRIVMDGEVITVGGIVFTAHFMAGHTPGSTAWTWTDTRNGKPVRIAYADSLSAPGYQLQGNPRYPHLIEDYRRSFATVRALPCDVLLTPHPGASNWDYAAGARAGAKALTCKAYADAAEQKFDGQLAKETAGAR
Chain of BlaC (P9WKD3 35-307 limits assumed): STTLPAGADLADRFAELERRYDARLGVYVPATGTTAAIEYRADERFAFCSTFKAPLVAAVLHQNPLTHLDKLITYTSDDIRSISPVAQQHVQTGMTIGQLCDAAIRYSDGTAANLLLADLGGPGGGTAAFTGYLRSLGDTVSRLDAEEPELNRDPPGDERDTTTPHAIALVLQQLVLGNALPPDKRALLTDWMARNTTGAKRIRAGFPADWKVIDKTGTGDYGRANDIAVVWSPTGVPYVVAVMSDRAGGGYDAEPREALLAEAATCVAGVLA
Chain of L2 (class A ESBL) (P96465 36-303 limits assumed): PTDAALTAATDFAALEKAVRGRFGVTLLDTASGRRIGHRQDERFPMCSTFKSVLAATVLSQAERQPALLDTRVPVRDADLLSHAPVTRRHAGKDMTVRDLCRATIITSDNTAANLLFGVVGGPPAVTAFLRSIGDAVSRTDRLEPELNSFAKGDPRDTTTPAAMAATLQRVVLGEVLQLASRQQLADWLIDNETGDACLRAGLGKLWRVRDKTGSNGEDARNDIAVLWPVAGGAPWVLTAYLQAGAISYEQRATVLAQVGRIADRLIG
Chain of L2 (P96465 36-303 limits assumed): as above

C[C@H]1[C@H](NC(=O)/C(=N\OC(C)(C)C(=O)O)c2csc(N)n2)C(=O)N1S(=O)(=O)O [Aztreonam]
MIC (S. maltophilia; read-out: MIC of the β-lactam alone (−), CI-20): 128 µg/mL | MIC (S. maltophilia; read-out: MIC of the β-lactam alone (−), CI-29): 128 µg/mL | MIC (S. maltophilia; read-out: MIC of the β-lactam alone (−), CI-31): 256 µg/mL | MIC (S. maltophilia; read-out: MIC of the β-lactam alone (−), K279a): 128 µg/mL | MIC (S. maltophilia; read-out: MIC of the β-lactam alone (−), K AMI 32): 128 µg/mL | MIC (S. maltophilia; read-out: MIC of the β-lactam alone (−), K CAZ 10): 256 µg/mL | MIC (S. maltophilia; read-out: MIC of the β-lactam alone (−), K MOX 8): 128 µg/mL

O=C(O)[C@H]1/C(=C/CO)O[C@@H]2CC(=O)N21 [Clavulanic acid]
MIC of aztreonam in the presence of the β-lactamase inhibitor (S. maltophilia; CI-20, inhibitor at 2 mg/L): 4 µg/mL | MIC of ceftazidime in the presence of the β-lactamase inhibitor (S. maltophilia; CI-20, inhibitor at 2 mg/L): 16 µg/mL | MIC of meropenem in the presence of the β-lactamase inhibitor (S. maltophilia; CI-20, inhibitor at 2 mg/L): 32 µg/mL | MIC of aztreonam in the presence of the β-lactamase inhibitor (S. maltophilia; CI-29, inhibitor at 2 mg/L): 1 µg/mL | MIC of ceftazidime in the presence of the β-lactamase inhibitor (S. maltophilia; CI-29, inhibitor at 2 mg/L): 4 µg/mL | MIC of meropenem in the presence of the β-lactamase inhibitor (S. maltophilia; CI-29, inhibitor at 2 mg/L): 16 µg/mL | MIC of aztreonam in the presence of the β-lactamase inhibitor (S. maltophilia; CI-31, inhibitor at 2 mg/L): 2 µg/mL | MIC of ceftazidime in the presence of the β-lactamase inhibitor (S. maltophilia; CI-31, inhibitor at 2 mg/L): 128 µg/mL | MIC of meropenem in the presence of the β-lactamase inhibitor (S. maltophilia; CI-31, inhibitor at 2 mg/L): 256 µg/mL | MIC of aztreonam in the presence of the β-lactamase inhibitor (S. maltophilia; K279a, inhibitor at 2 mg/L): 1 µg/mL | MIC of ceftazidime in the presence of the β-lactamase inhibitor (S. maltophilia; K279a, inhibitor at 2 mg/L): 4 µg/mL | MIC of meropenem in the presence of the β-lactamase inhibitor (S. maltophilia; K279a, inhibitor at 2 mg/L): 32 µg/mL | MIC of aztreonam in the presence of the β-lactamase inhibitor (S. maltophilia; K AMI 32, inhibitor at 2 mg/L): 0.5 µg/mL | MIC of ceftazidime in the presence of the β-lactamase inhibitor (S. maltophilia; K AMI 32, inhibitor at 2 mg/L): 1 µg/mL | MIC of meropenem in the presence of the β-lactamase inhibitor (S. maltophilia; K AMI 32, inhibitor at 2 mg/L): 8 µg/mL | MIC of aztreonam in the presence of the β-lactamase inhibitor (S. maltophilia; K CAZ 10, inhibitor at 2 mg/L): 0.5 µg/mL | MIC of ceftazidime in the presence of the β-lactamase inhibitor (S. maltophilia; K CAZ 10, inhibitor at 2 mg/L): 8 µg/mL | MIC of meropenem in the presence of the β-lactamase inhibitor (S. maltophilia; K CAZ 10, inhibitor at 2 mg/L): 8 µg/mL | MIC of aztreonam in the presence of the β-lactamase inhibitor (S. maltophilia; K MOX 8, inhibitor at 2 mg/L): 0.25 µg/mL | MIC of ceftazidime in the presence of the β-lactamase inhibitor (S. maltophilia; K MOX 8, inhibitor at 2 mg/L): 1 µg/mL | MIC of meropenem in the presence of the β-lactamase inhibitor (S. maltophilia; K MOX 8, inhibitor at 2 mg/L): 8 µg/mL | ability to potentiate β-lactams / reverse resistance (in words) (S. maltophilia; inhibitor at 2 mg/L, β-lactam and strain named in the value): does not reduce the MIC of ceftazidime against S. maltophilia K279a; also recorded: reduces the aztreonam MIC against K279a | induction of L1 production (in words) [1]: induced L1 production | IC50 (L2; IC50, purified L2, FC5 substrate): 22.3 nM | IC50 (L2; pIC50, purified L2, FC5 substrate): 38.9 nM

C[C@@H](O)[C@H]1C(=O)N2C(C(=O)O)=C(SCCN=CN)C[C@H]12 [Imipenem]
pIC50 (BlaC; pre-incubation time 0 min): 5.59 ± 0.01 | pIC50 (BlaC; pre-incubation time 10 min): 6.09 ± 0.02 | pIC50 (BlaC; pre-incubation time 60 min): 6.45 ± 0.05

CC(C)(O/N=C(\C(=O)N[C@@H]1C(=O)N2C(C(=O)[O-])=C(C[n+]3ccccc3)CS[C@H]12)c1csc(N)n1)C(=O)O [Ceftazidime]
MIC of the β-lactam alone (−) (S. maltophilia; CI-20): 16 µg/mL | MIC of the β-lactam alone (−) (S. maltophilia; CI-29): 8 µg/mL | MIC of the β-lactam alone (−) (S. maltophilia; CI-31): 256 µg/mL | MIC of the β-lactam alone (−) (S. maltophilia; K279a): 4 µg/mL | MIC of the β-lactam alone (−) (S. maltophilia; K AMI 32): 2 µg/mL | MIC of the β-lactam alone (−) (S. maltophilia; K CAZ 10): 64 µg/mL | MIC of the β-lactam alone (−) (S. maltophilia; K MOX 8): 4 µg/mL | Km (L1 (class B3 MBL)): 260 µM | kcat (L1 (class B3 MBL)): 1.67 s⁻¹ | kcat/KM (L1 (class B3 MBL)): 6.4 (μM^−1 · s^−1) × 10^−3 | Km (L2 (class A ESBL)): 548 µM | kcat (L2 (class A ESBL)): 1.88 s⁻¹ | kcat/KM (L2 (class A ESBL)): 3.4 (μM^−1 · s^−1) × 10^−3
